Source: the OligoGym collection
Strand notation (5' to 3'): a small letter for the sugar, then the base; units joined by * are phosphorothioate-linked, units joined directly phosphodiester-linked; [ ] holds rarer units or linkages, { } end groups; capitals alone tell only the bases. HELM strings list units from the 5' end as sugar, base in round brackets, then linkage (d deoxyribose, r ribose, m 2'-O-methyl, p phosphodiester). [sp] = phosphorothioate linkage; d = 2'-deoxy (DNA); m = 2'-O-methyl

How the values were obtained:
EGFR [1] = assay: HEK293-TLR7, 100 nM ASO, then resiquimod
EGFR [2] = assay: HEK293-TLR8, 100 nM ASO, then resiquimod
CDKN2B-AS1 [3] = assay: HEK293-TLR7, 100 nM ASO, then resiquimod
CDKN2B-AS1 [4] = assay: HEK293-TLR8, 100 nM ASO, then resiquimod

Substance	TLR7 signal (NF-kB luciferase) (% of resiquimod alone) (EGFR [1])	TLR8 potentiation (NF-kB luciferase) (fold of resiquimod alone) (EGFR [2])	TLR7 signal (NF-kB luciferase) (% of resiquimod alone) (CDKN2B-AS1 [3])	TLR8 potentiation (NF-kB luciferase) (fold of resiquimod alone) (CDKN2B-AS1 [4])
mA*mU*mC*mC*mA*dC*dC*dA*dC*dG*dT*dC*dG*dT*dC*mC*mA*mU*mG*mU	34.7	1.06	–	–
mA*mA*mA*mA*mA*dT*dT*dA*dC*dT*dT*dT*dA*dA*dA*mA*mG*mC*mA*mA	71.1	1.32	–	–
mU*mA*mC*mU*mC*dG*dT*dC*dG*dG*dC*dA*dT*dC*dC*mA*mC*mC*mA*mC	70.2	1.08	–	–
mG*mA*mA*mG*mU*dG*dA*dA*dG*dT*dA*dA*dA*dA*dG*mG*mA*mG*mA*mA	35.6	0.57	–	–
mG*mU*mA*mG*mA*dG*dA*dA*dA*dT*dT*dA*dT*dT*dT*mU*mA*mG*mG*mA	34.5	2.47	–	–
mC*mA*mC*mU*mG*dG*dG*dT*dG*dT*dA*dA*dG*dA*dG*mG*mC*mU*mC*mC	87.3	2.44	–	–
mG*mU*mU*mA*mC*dT*dC*dG*dT*dG*dC*dC*dT*dT*dG*mG*mC*mA*mA*mA	32.3	1.17	–	–
mG*mU*mA*mC*mU*dC*dG*dT*dC*dG*dG*dC*dA*dT*dC*mC*mA*mC*mC*mA	31.5	1.25	–	–
mU*mG*mA*mA*mG*dT*dA*dA*dA*dA*dA*dT*dC*dA*dA*mU*mA*mG*mC*mG	30	1.96	–	–
mU*mU*mU*mU*mG*dA*dA*dG*dT*dG*dA*dA*dG*dT*dA*mA*mA*mA*mG*mG	51.6	3.08	–	–
mC*mA*mA*mG*mG*dC*dC*dC*dT*dT*dC*dG*dC*dA*dC*mU*mU*mC*mU*mU	79.4	2.42	–	–
mC*mU*mU*mG*mC*dA*dC*dG*dT*dG*dG*dC*dT*dT*dC*mG*mU*mC*mU*mC	28.1	3.06	–	–
mU*mU*mU*mA*mC*dG*dG*dT*dT*dT*dT*dC*dA*dG*dA*mA*mU*mA*mU*mC	40.6	3.63	–	–
mC*mA*mG*mG*mU*dG*dT*dC*dC*dT*dT*dG*dC*dA*dC*mG*mU*mG*mG*mC	55.4	1.95	–	–
mG*mU*mA*mA*mA*dA*dG*dG*dA*dG*dA*dA*dA*dA*dC*mU*mA*mU*mC*mU	31.7	1.14	–	–
mU*mG*mU*mA*mG*dA*dG*dA*dA*dA*dT*dT*dA*dT*dT*mU*mU*mA*mG*mG	61.4	2.99	–	–
mA*mC*mA*mG*mU*dG*dT*dT*dG*dA*dG*dA*dT*dA*dC*mU*mC*mG*mG*mG	47.6	2.73	–	–
mC*mU*mU*mU*mU*dG*dA*dA*dG*dT*dG*dA*dA*dG*dT*mA*mA*mA*mA*mG	79.8	1.98	–	–
mA*mU*mG*mU*mC*dC*dC*dG*dC*dC*dA*dC*dT*dG*dG*mA*mU*mG*mC*mU	71.7	0.84	–	–
mU*mA*mG*mG*mC*dA*dC*dT*dT*dT*dG*dC*dC*dT*dC*mC*mU*mU*mC*mU	58.9	2.29	–	–
mA*mA*mU*mU*mA*dC*dT*dT*dT*dA*dA*dA*dA*dG*dC*mA*mA*mA*mA*mG	77.1	2.07	–	–
mA*mG*mU*mA*mA*dA*dA*dA*dG*dC*dT*dT*dT*dT*dG*mA*mA*mG*mU*mG	48.3	2.7	–	–
mU*mA*mA*mA*mA*dG*dG*dA*dG*dA*dA*dA*dA*dC*dT*mA*mU*mC*mU*mU	58.2	1.69	–	–

Substance	TLR7 signal (NF-kB luciferase) (% of resiquimod alone) (EGFR [1])	TLR8 potentiation (NF-kB luciferase) (fold of resiquimod alone) (EGFR [2])	TLR7 signal (NF-kB luciferase) (% of resiquimod alone) (CDKN2B-AS1 [3])	TLR8 potentiation (NF-kB luciferase) (fold of resiquimod alone) (CDKN2B-AS1 [4])
mG*mG*mG*mU*mA*dT*dC*dG*dA*dA*dA*dG*dA*dG*dT*mC*mU*mG*mG*mA	27.1	0.91	–	–
mA*mU*mU*mA*mC*dT*dT*dT*dA*dA*dA*dA*dG*dC*dA*mA*mA*mA*mG*mG	42.9	2.17	–	–
mU*mU*mA*mC*mU*dT*dT*dA*dA*dA*dA*dG*dC*dA*dA*mA*mA*mG*mG*mA	35	2.27	–	–
mG*mU*mC*mC*mU*dT*dG*dC*dA*dC*dG*dT*dG*dG*dC*mU*mU*mC*mG*mU	31.5	0.8	–	–
mA*mA*mG*mG*mC*dC*dC*dT*dT*dC*dG*dC*dA*dC*dT*mU*mC*mU*mU*mA	31.2	1.49	–	–
mU*mG*mG*mG*mC*dT*dG*dG*dA*dA*dT*dC*dC*dG*dA*mG*mU*mU*mA*mU	36.1	1.92	–	–
mG*mG*mA*mG*mA*dT*dT*dT*dC*dA*dG*dA*dG*dC*dA*mG*mC*mU*mU*mC	36.2	1.25	–	–
mG*mG*mU*mG*mU*dC*dC*dT*dT*dG*dC*dA*dC*dG*dT*mG*mG*mC*mU*mU	72.2	0.88	–	–
mA*mG*mG*mU*mG*dT*dC*dC*dT*dT*dG*dC*dA*dC*dG*mU*mG*mG*mC*mU	76.4	1.27	–	–
mC*mG*mG*mC*mA*dT*dC*dC*dA*dC*dC*dA*dC*dG*dT*mC*mG*mU*mC*mC	56.7	1.33	–	–
mG*mG*mC*mA*mU*dC*dC*dA*dC*dC*dA*dC*dG*dT*dC*mG*mU*mC*mC*mA	34.9	0.85	–	–
mA*mU*mG*mC*mC*dA*dT*dC*dC*dA*dC*dT*dT*dG*dA*mU*mA*mG*mG*mC	29.3	1.16	–	–
RNA1{m(A)[sp].m(A)[sp].m(G)[sp].m(G)[sp].m(U)[sp].d(G)[sp].d(G)[sp].d(C)[sp].d(C)[sp].d(A)[sp].d(C)[sp].d(A)[sp].d(G)[sp].d(G)[sp].d(C)[sp].m(A)[sp].m(A)[sp].m(C)[sp].m(G)[sp].m(U)}$$$$	–	–	57.9	0.58
RNA1{m(A)[sp].m(A)[sp].m(U)[sp].m(U)[sp].m(U)[sp].d(A)[sp].d(A)[sp].d(A)[sp].d(G)[sp].d(C)[sp].d(A)[sp].d(T)[sp].d(G)[sp].d(A)[sp].d(A)[sp].m(U)[sp].m(A)[sp].m(U)[sp].m(U)[sp].m(A)}$$$$	–	–	46.8	3.29
RNA1{m(A)[sp].m(A)[sp].m(A)[sp].m(A)[sp].m(G)[sp].d(A)[sp].d(T)[sp].d(T)[sp].d(A)[sp].d(T)[sp].d(C)[sp].d(T)[sp].d(T)[sp].d(C)[sp].d(T)[sp].m(U)[sp].m(U)[sp].m(U)[sp].m(A)[sp].m(A)}$$$$	–	–	47.4	3.19
RNA1{m(G)[sp].m(U)[sp].m(C)[sp].m(G)[sp].m(U)[sp].d(G)[sp].d(G)[sp].d(C)[sp].d(A)[sp].d(A)[sp].d(A)[sp].d(T)[sp].d(A)[sp].d(G)[sp].d(T)[sp].m(C)[sp].m(C)[sp].m(U)[sp].m(A)[sp].m(G)}$$$$	–	–	27.5	2.12
RNA1{m(A)[sp].m(A)[sp].m(A)[sp].m(G)[sp].m(C)[sp].d(A)[sp].d(G)[sp].d(T)[sp].d(C)[sp].d(T)[sp].d(C)[sp].d(C)[sp].d(A)[sp].d(T)[sp].d(G)[sp].m(U)[sp].m(C)[sp].m(C)[sp].m(C)[sp].m(A)}$$$$	–	–	27.2	1.9
RNA1{m(C)[sp].m(A)[sp].m(G)[sp].m(U)[sp].m(G)[sp].d(T)[sp].d(T)[sp].d(T)[sp].d(T)[sp].d(T)[sp].d(A)[sp].d(A)[sp].d(T)[sp].d(T)[sp].d(T)[sp].m(U)[sp].m(G)[sp].m(U)[sp].m(A)[sp].m(G)}$$$$	–	–	62.7	3.18
RNA1{m(U)[sp].m(U)[sp].m(G)[sp].m(U)[sp].m(G)[sp].d(A)[sp].d(A)[sp].d(A)[sp].d(A)[sp].d(G)[sp].d(A)[sp].d(T)[sp].d(T)[sp].d(A)[sp].d(T)[sp].m(C)[sp].m(U)[sp].m(U)[sp].m(C)[sp].m(U)}$$$$	–	–	35	1.05
RNA1{m(U)[sp].m(G)[sp].m(U)[sp].m(G)[sp].m(A)[sp].d(A)[sp].d(A)[sp].d(A)[sp].d(G)[sp].d(A)[sp].d(T)[sp].d(T)[sp].d(A)[sp].d(T)[sp].d(C)[sp].m(U)[sp].m(U)[sp].m(C)[sp].m(U)[sp].m(U)}$$$$	–	–	34.5	2.79
RNA1{m(A)[sp].m(A)[sp].m(G)[sp].m(A)[sp].m(U)[sp].d(T)[sp].d(A)[sp].d(T)[sp].d(C)[sp].d(T)[sp].d(T)[sp].d(C)[sp].d(T)[sp].d(T)[sp].d(T)[sp].m(U)[sp].m(A)[sp].m(A)[sp].m(U)[sp].m(U)}$$$$	–	–	42.1	2.91
RNA1{m(U)[sp].m(C)[sp].m(U)[sp].m(C)[sp].m(C)[sp].d(A)[sp].d(T)[sp].d(G)[sp].d(T)[sp].d(C)[sp].d(C)[sp].d(C)[sp].d(A)[sp].d(G)[sp].d(G)[sp].m(C)[sp].m(C)[sp].m(U)[sp].m(C)[sp].m(C)}$$$$	–	–	43.5	3.41
